Structures can show the parent of a compound that is named as a salt.

Data on five compounds can be found in patent US8575352B2, “Benzyl sulfonamide derivatives useful as MOGAT-2 inhibitors” (Eli Lilly and Company, priority 2012, dated 2013).

Test [1] concerns the target T1, human MOGAT-2 (Homo sapiens, UniProt Q3SYC2). Briefly: Inhibitory Activity in MOGAT-2 Cell Assay (Caco-2 cells stably transfected with human MOGAT-2, HDG substrate, LC-MS). It counts as cell-based. Also noted: expressed in transfected cells. The conditions noted are these: Caco-2 cells expressing human MOGAT-2, HDG/DOPC, 4 hours; read-out: IC50 nM (Std Dev., n*). The protocol:
The inhibitory activity of compounds against human MOGAT-2 in a cell environment is evaluated in this assay. Caco-2 is a human colon carcinoma cell line and is often used as a model for intestinal epithelial cells. […] A MAG analogue, 2-O-Hexadecylglycerol (HDG), is utilized to detect cellular MOGAT-2 activity, because HDG is not hydrolyzed and the resulting product is readily monitored by mass spectrometry. The substrate is delivered to cells using as a mixture with DOPC in the form of sonicated vesicles.
Seed the Caco2 cells onto 100 mm dishes to be 80% confluent after 24 hours in complete media (3/1 DMEM: F12+10% FBS+20 mM HEPES+gentamicin). Transfect the cells with hMOGAT-2 plasmid (MOGAT-2-pcDNA3.1-Hygro) using Lipofectamine 2000 (Invitrogen). After a 6 hour exposure to the transfection mixture, wash the cells three times in PBS and then add media. Incubate the cells for an additional 18 hours incubation, trypsinize the cells and serially dilute them into 100 mm dishes. Add complete media+400 μg/ml hygromycin and incubate until clones appear. Isolate and transfer the clones into 24 well dishes and grow to confluency. Prepare the RNAs from these clones using a Qiagen RNAeasy kit. Perform Taqman analysis using an ABI inventoried assay (HS00228262) on a 7900 Sequence Detection System (ABI). Analyze the lysates from these clones by Western blot analysis using a goat polyclonal antibody (Santa Cruz, SC-32392 to confirm human MOGAT-2 expression of a 38 kD protein corresponding to MOGAT-2.
Mix 2-O-hexadecylglycerol (“HDG”, Biosynth Chemistry & Biology, #H-1806, 562.7 μl of 20 mg/ml) and DOPC (14.3 ml of 20 mg/ml) in chloroform in a glass tube; dry first under N2 gas; and then under reduced pressure for additional 30 minutes. Add 20 ml of buffer (150 mM Tris-Cl pH 7.4, 250 mM sucrose, 1 mM EDTA) to the dried HDG/DOPC mixture while sonicating until the solution becomes clear. Plate the Caco2 cells into a poly-D-lysine coated 96-well plate (the “Cell Plate”) at 37° C., 5% CO2 overnight. Remove the growth media and pretreat the cells with the test compound in DMEMF12 (3:1) media (GIBCO 93-0152DK) containing 2% BSA (Sigma) for 30 minutes. Treat the cells with one test compound in 2% BSA DMEMF12 (3:1) media containing 40 μM of oleic acid and 800 μM of 8.9:91.9 (molar ratio) HDG/DOPC for 4 hours. Trypsinize the cells with 50 μl of trypsin solution and add 50 μl of PBS. Immediately freeze the cells on dry ice and store at −20° C. for LC-MS analysis. Extract the cells with chloroform/methanol as follows: transfer the cells to a 2 ml plate; wash the cell plate with 200 μL methanol and then transfer the methanol wash to the 2 ml plate; wash the cell plate again with 200 μL PBS and transfer the PBS wash to the 2 ml plate. Add chloroform (400 μL) with internal standard (19.52 ng/mL) DAG (15:0, 15:0 (Sigma)), D5-TAG (39.03 ng/mL) CDN (16, 16, 16) to the 2 mL Plate. Turn the sealed 2 mL Plate up and down (10×), then vortex and spin. Remove 400 μL of the lower layer from the 2 mL plate and add to the wells of another plate the “Final Plate”. Add CHCl3:MeOH (400 μL 2:1) to the 2 mL Plate. Again turn the sealed 2 mL Plate up and down (10×), vortex and spin. Remove 220 μL of the lower layer from the 2 mL Plate and add to the Final Plate. Dry the Final Plate and reconstitute with […] of IPA. Seal the Final Plate and shake for 5 min. […]

Test [2] deals with plasma triglyceride (TAG) secretion from the intestine. Briefly: Dog Oil Bolus Model (plasma triglyceride after olive oil bolus). The conditions noted are these: olive oil bolus 5 ml/kg; for reduction of 18:1 TAG (plasma TAG 18:1 18:1 18:1 net AUC): 18:1 TAG by LC/MS/MS. Type of test: in vivo, dog (male beagles). The text has this: Inhibiting MOGAT-2 found in the small intestine may be useful for treating hypertriglyceridemia caused by excessive fat intake Inhibition of MOGAT-2 disrupts resynthesis of triglycerides, which reduces secretion of triglycerides from the intestine. Therefore, MOGAT-2 inhibition interferes with a specific process that leads to eventual secretion of triglycerides into the intestine for eventual circulation through the body. To assess the ability of one or more of the exemplified compounds to inhibit MOGAT-2 induced TAG secretion into the intestine as measured in the blood system, the following protocol can be followed.
Twenty one male beagles (n=7 per treatment group) are enrolled for each study, each dog selected to have a body weight between 9-13 kg. House the dogs in cages with a standard light cycle (12 hours light and 12 hours dark); at room temperature: 72±8° F.; and at 30%-70% relative humidity. Fast the dogs for 16 hours prior to the start of the study, then dose the fasted dogs with vehicle (1% HEC, 0.25%, Tween 80, Antifoam) or one of the test compounds in that vehicle. Bleed the dogs one hour after dosing, (0.5 ml from the jugular vein) for a time 0 sample. Dose the dogs with olive oil (Sigma Catalog#: O-1514, 5 ml/kg) immediately after collection of the time 0 sample. Collect samples into an EDTA tube on ice at 1.5, 2, 3, 5, 7, and 9 hrs post compound/vehicle dosing. Centrifuge the samples at […] for 15 min and analyze (Roche Cat no. 1877771) for plasma total triglyceride using a Roche Hitachi 917. For plasma TAG 18.1—18.1—18.1 measurement, extract the samples and perform LC/MS/MS analysis similarly to that described above in MOGAT-2 Cell Assay using 10 μL of plasma/.
The analyte is the [M+NH4]+ ion of TAG 18:1 18:1 18:1, which has a mass of 902.8 m/z; the internal standard is D5 TAG 16:0 16:0 16:0, which has a mass of 829.8 m/z. Report the ratio of the 603.5 m/z daughter ion of 902.8 m/z (TAG 18:1 18:1 18:1) and the 556.5 m/z daughter ion of 829.8 m/z (D5 TAG 16:0 16:0 16:0 internal standard) changes in TAG 18:1 18:1 18:1 relative amount. Calculate the net plasma TAG AUC from total TAG AUC minus baseline TAG AUC using Graphpad Prism4: (Net AUCTAG=AUCTAG post oil bolus−AUCTAG at 0 hour). The percent inhibition of plasma triglyceride is calculated as follows: the (oil bolus group mean of net TAG AUC−oil bolus group mean of net TAG AUC with compound treatment/oil bolus group mean of net TAG AUC)*100. The final statistic analysis uses Dunnett's method of One way Anova for comparison with the control. All Net TAG AUC values are transformed to ranked averaged AUC for comparison to limit the variability within the studies.

For test [3], the target named is T1, human MOGAT-2. Kind of test: MOGAT-2 Inhibitory Assay (in vitro, SF9 cell lysate, 14C-oleoyl-CoA, Microscint extraction). It counts as biochemical. Also on record: made in house; host or cells: insect SF9 cells (crude lysate supernatant). The conditions noted are these: SF9 cell extract expressing human MOGAT-2, 90 min, room temperature. The procedure: The in vitro inhibitory activity of compounds against human MOGAT-2 is evaluated in this assay. MOGAT-2 transfers an oleoyl group to monooleoyl-glycerol (“MAG”) from oleoyl-CoA to form dioleoyl-glycerol (“DAG”) in the intestinal triglyceride resynthesis pathway. The assay takes advantage of Microscint Extraction, which extracts hydrophobic molecules selectively over hydrophilic ones to separate the ^14C-oleoyl-CoA from ^14C-DAG.
Genetically engineered insect SF9 cells express human MOGAT-2. Prepare the cell lysate in 20 mM of NaCl with protease inhibitor (Roche Cat #11873580001). Homogenize the SF9 cells expressing human MOGAT-2 at 15,000 rpm for 20×2 seconds (PT-3100 Polytrone). Centrifuge the homogenate at 1000 g for 10 minutes at 4° C. Collect the supernatant into a separate tube for protein quantification and activity testing. Purify the glycerol monooleate substrate (Spectrum Chemical, CAS#25496-72-4) chromatographically. Prepare the monoacylglyerol (MAG) substrate in phospholipid vescicles (dioleoyl phosphatidylcholine “DOPC”). Prepare the MAG/DOPC vesicles at 20 mM concentration of total lipids (MAG and DOPC). Prepare different molar ratios of MAG to total lipids for either compound screening (8.9%) or compound kinetic studies (2.6-40%). Mix the appropriate amount of purified MAG and DOPC (Avanti Polar Lipids #850375C) in chloroform in a glass tube. […]

T1 sequence (Q3SYC2 whole entry): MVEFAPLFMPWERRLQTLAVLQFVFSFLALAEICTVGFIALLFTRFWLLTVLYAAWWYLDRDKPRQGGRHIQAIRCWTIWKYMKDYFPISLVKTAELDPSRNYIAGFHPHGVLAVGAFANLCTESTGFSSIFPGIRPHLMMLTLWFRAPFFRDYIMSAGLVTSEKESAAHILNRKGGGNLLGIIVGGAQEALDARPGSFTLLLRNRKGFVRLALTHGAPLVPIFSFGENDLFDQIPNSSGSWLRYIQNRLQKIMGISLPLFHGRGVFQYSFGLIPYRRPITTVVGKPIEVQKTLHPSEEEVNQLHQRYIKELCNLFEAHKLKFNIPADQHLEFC

On to `CS(=O)(=O)N[C@@H](c1ccc(CNCCOc2ccc(F)cn2)cc1)C(F)(F)F` [Example 17, N-[(1S)-2,2,2-Trifluoro-1-{4-[({2-[(5-fluoropyridin-2-yl)oxy]ethyl}amino)-methyl]phenyl}ethyl]-methanesulfonamide hydrochloride], for which the IC50 (commonly the midpoint of a concentration-inhibition curve) in test [1] stood at 45.5 nM.
For `C[C@H](CNCc1ccc([C@H](NS(C)(=O)=O)C(F)(F)F)cc1)Oc1ccccn1` [Example 3, N-{(1S)-2,2,2-Trifluoro-1-[4-({[(2R)-2-(pyridin-2-yloxy)propyl]amino}-methyl)phenyl]ethyl}-methanesulfonamide hydrochloride], the IC50 in test [1] was found to be 14.4 nM.
`C[C@H](CNCc1ccc([C@H](NS(C)(=O)=O)C(F)(F)F)cc1)Oc1ccc(F)cn1.Cl` [Example 36, N-[(1S)-2,2,2-Trifluoro-1-{4-[({(2r)-2-[(5-fluoropyridin-2-yl)oxy]propyl}amino)methyl]phenyl}ethyl]-methanesulfonamide hydrochloride]: the IC50 in test [1] came to 36.1 nM. Also, the “reduction of 18:1 TAG (plasma TAG 18:1 18:1 18:1 net AUC)” value in test [2] (60 mg/kg) was found to be 43%. The “reduction of TAG secretion/absorption (percent inhibition of plasma total triglyceride net AUC)” value in test [2] (60 mg/kg, total TAG) is given as 38%.
Consider `COC[C@H](CNCc1ccc([C@H](NS(C)(=O)=O)C(F)(F)F)cc1)Oc1ccc(F)cn1.Cl` [Example 1, N-[(1S)-2,2,2-Trifluoro-1-{4-[({(2S)-2-[(5-fluoropyridin-2-yl)oxy]-3-methoxypropyl}amino)methyl]phenyl}ethyl]methanesulfonamide hydrochloride], for which the figures for the IC50 in test [1] and in test [3] were 30.6 nM and 2 nM, respectively. Besides, the results for the “reduction of 18:1 TAG (plasma TAG 18:1 18:1 18:1 net AUC)” value in test [2] (30 mg/kg) and in test [2] (60 mg/kg) were 64% and 76%, respectively. Besides, in test [2] (30 mg/kg, total TAG), the “reduction of TAG secretion (percent inhibition of plasma total triglyceride net AUC)” value was 61%. The “reduction of TAG secretion/absorption (percent inhibition of plasma total triglyceride net AUC)” value in test [2] (60 mg/kg, total TAG) is 77%.
Regarding `COC[C@H](CNCc1ccc([C@H](NS(C)(=O)=O)C(F)(F)F)cc1)Oc1ccccn1` [Example 5, N-{(1S)-2,2,2-Trifluoro-1-[4-({[(2S)-3-methoxy-2-(pyridin-2-yloxy)propyl]amino}-methyl)phenyl]ethyl}-methanesulfonamide hydrochloride (1:1)], the IC50 in test [1] is 44.6 nM.
